The values that follow come from US20180362935A1, “A renal cell line with stable transporter expression” (Stichting Katholieke Universiteit, priority 2015, published 2018).

Values joined by “and” are separate entries in the source; they are usually repeats but may differ in a detail not shown here. Equal entries are not always repeated. Where two headings read alike, the source gives them in different places.

For one data set, the system named is ciPTEC-OAT1. Put plainly: MTT viability assay in ciPTEC-OAT1. The data set is classed as cell-based, human. Conditions: for Cell viability (MTT) relative to no exposure: ciPTEC-OAT1, 1 mM, 48 h; for IC50: serum free medium, mean ± SEM, n ≥ 3. Background: Tetrazolium dyes change colour on reduction, which living cells bring about.
Data set [1] has as its target T1, OAT1 (Homo sapiens, UniProt Q4U2R8).
T1 sequence (Q4U2R8 1-550 isoform Q4U2R8-2): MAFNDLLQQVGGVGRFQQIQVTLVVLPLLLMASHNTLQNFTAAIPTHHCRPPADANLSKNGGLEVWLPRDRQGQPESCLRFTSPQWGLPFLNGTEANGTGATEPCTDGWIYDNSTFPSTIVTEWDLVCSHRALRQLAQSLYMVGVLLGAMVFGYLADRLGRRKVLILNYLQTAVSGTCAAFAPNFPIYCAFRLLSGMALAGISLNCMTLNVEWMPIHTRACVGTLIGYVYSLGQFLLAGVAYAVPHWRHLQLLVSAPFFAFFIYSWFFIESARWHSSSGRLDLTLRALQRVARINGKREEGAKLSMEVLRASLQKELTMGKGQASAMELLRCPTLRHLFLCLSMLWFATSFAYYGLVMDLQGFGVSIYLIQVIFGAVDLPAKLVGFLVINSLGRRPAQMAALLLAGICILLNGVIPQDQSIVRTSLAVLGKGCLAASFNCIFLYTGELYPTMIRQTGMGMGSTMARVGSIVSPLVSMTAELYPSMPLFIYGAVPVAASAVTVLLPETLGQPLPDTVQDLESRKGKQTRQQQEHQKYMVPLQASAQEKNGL

Another data set has as its target T2, CHO-OAT1 (Homo sapiens, UniProt Q4U2R8).
T2 construct: host or cells: CHO
T2 sequence (Q4U2R8 1-563): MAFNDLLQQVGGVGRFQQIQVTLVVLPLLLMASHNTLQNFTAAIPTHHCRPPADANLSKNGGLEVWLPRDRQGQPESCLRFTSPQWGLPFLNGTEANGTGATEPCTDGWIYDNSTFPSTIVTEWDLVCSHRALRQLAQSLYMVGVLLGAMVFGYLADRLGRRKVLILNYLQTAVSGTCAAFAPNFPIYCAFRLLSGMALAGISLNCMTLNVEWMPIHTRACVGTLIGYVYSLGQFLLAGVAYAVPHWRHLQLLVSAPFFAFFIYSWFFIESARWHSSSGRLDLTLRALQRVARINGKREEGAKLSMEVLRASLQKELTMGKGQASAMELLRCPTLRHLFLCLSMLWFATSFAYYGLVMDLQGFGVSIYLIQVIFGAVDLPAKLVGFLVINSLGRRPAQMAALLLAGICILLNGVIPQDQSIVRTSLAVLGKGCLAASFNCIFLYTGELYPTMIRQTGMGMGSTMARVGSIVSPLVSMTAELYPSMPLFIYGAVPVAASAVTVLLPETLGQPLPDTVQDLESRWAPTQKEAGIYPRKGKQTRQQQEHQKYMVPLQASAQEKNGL
Conditions: read-out: KI (literature), cited from earlier work.

Another data set addresses T3, HeLa-OAT1 (Homo sapiens, UniProt Q4U2R8).
T3 construct: host or cells: HeLa
T3 sequence (Q4U2R8 1-563): T2 sequence (Q4U2R8 1-563)
Conditions: substrate PAH, HeLa-OAT1, Ref. 29; read-out: IC50 (literature); cited from earlier work.

A further data set relates to hOAT1-CHO and HEK-OAT1. Conditions: Ref 35, 37, cited from earlier work.
Another data set deals with T4, OAT3 (Homo sapiens, UniProt Q8TCC7).
T4 sequence (Q8TCC7 1-542): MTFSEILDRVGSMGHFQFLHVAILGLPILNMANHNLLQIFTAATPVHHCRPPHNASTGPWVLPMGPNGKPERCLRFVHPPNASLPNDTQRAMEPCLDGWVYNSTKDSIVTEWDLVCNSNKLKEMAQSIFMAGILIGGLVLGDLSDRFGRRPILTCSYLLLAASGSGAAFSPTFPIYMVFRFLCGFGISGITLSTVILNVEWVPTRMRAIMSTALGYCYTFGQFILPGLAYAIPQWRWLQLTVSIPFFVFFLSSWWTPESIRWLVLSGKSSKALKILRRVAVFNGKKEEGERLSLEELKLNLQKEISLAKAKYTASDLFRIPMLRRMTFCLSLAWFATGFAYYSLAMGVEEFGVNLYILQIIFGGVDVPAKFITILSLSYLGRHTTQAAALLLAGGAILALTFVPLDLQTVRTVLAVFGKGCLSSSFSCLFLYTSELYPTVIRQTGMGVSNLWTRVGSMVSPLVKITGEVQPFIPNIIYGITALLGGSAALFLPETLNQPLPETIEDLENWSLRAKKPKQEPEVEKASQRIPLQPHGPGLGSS

Another data set has as its target OCT2 (Homo sapiens, UniProt O15244). Conditions: ASP+ 1 μM, 60 min, HBSS, 37° C.; similar IC50 in ciPTEC parent, ciPTEC-OAT1 and ciPTEC-OAT3 (p>0.05).
Another data set has as its target T5, Xenopus-OAT3 (Homo sapiens, UniProt Q8TCC7).
T5 construct: host or cells: Xenopus oocytes
T5 sequence (Q8TCC7 1-542): T4 sequence (Q8TCC7 1-542)
Particulars: substrate estrone sulfate, Xenopus-OAT3, References 50, 53; read-out: IC50 (literature); cited from earlier work.

The target in the next data set is T6, CHO-OAT3 (Homo sapiens, UniProt Q8TCC7).
T6 construct: host or cells: CHO
T6 sequence (Q8TCC7 1-542): T4 sequence (Q8TCC7 1-542)
Conditions: substrate Sitagliptin, CHO-OAT3, Reference 51; read-out: IC50 (literature); cited from earlier work.

The next data set concerns ciPTEC-OAT3. The data set can be described thus: MTT viability assay in ciPTEC-OAT3. The method, then:
(§1) Briefly, monolayers of ciPTEC (96-wells) were exposed to antivirals in serum-free medium (SFM) on day 6 of maturation. Cell toxicity was analyzed further in presence of multidrug resistance protein (MRP) efflux inhibitor MK571 (5 μM) and breast cancer resistance protein (BCRP) efflux inhibitor KO143 (10 μM). After incubation for 24, 48 and 72 h at 37° C., ciPTEC were washed and incubated with 0.5 mg/ml thiazolyl blue tetrazolium bromide (MTT, Sigma) for 3 h at 37° C. in absence of antivirals. Formazan crystals formed in viable cells were dissolved in dimethyl sulfoxide (DMSO, Merck, Whitehouse Station, USA) and optical density was measured (560 nm, background at 670 nm was subtracted) using Benchmark Plus (Bio-Rad, Hercules, USA).
(§2) Non-linear regression with variable slope constraining the top to 100% was used to fit the data after background subtraction with GraphPad Prism. Statistics was performed by two-way ANOVA (two-tailed, α=0.05) using GraphPad Prism as well. All data is presented as mean±SEM of at least three separate experiments (n=3) performed in triplicate, unless stated otherwise.

The subject of a further data set is ciPTEC parent. Put plainly: MTT viability assay in ciPTEC parent. The data set is classed as cell-based, human. Particulars: 10×Cmax (50 μM), with MRP4 inhibitor MK571 and BCRP inhibitor KO143. As for the experimental part:
as §1, §2

The conditions of data set [2]: Varma et al., 2009; cited from earlier work.
Data set [3] deals with OAT1. The data set can be described thus: OAT1 gene expression in ciPTEC-OAT1 with or without EGF (quantitative PCR). It counts as cell-based, human. Particulars: ciPTEC-OAT1, EGF 10 ng/mL, 48 hours. As for the experimental part: ciPTEC-OAT1. 4B2 DSM ACC3279 was cultured in phenol red-free DMEM/F12 (Invitrogen, Breda, The Netherlands), as described in example 1 here above. Cells were seeded at a density of 63,000 cell/cm^2, cultured for 24 hours at 33° C. and subsequently at 37° C. for 7 days. To study the effects of EGF, matured ciPTEC-OAT1 were treated for 48 hours in the presence or absence of EGF (10 ng/mL).
OAT1 gene expression profiling was performed by isolating total RNA from cells grown in six-well plates, using an RNeasy Mini kit (Qiagen, Venlo, The Netherlands), according to the manufacturers specifications. Subsequently, cDNA was synthesized using the Omniscript RT-kit (Qiagen). Subsequently, quantitative PCR was performed in a CFX96 Real-Time PCR detection system (Bio-rad, Veenendaal, The Netherlands) according to the manufacturers conditions. GAPDH was used as reference gene for normalization and relative expression levels were calculated as fold change using the 2^−ΔΔCT method. The primer-probe sets for the quantitative PCR were obtained from Applied Biosystems: GAPDH—hs99999905 ml and OAT1—hs00537914.

Setting [4] is: 120 h, read-out: Inhibitory potency on cell viability, literature 120 h.
Setting [5] is: read-out: Inhibitory potency on cell viability, literature 48 h, 48 h.

Sequence of OCT2 (O15244 whole entry): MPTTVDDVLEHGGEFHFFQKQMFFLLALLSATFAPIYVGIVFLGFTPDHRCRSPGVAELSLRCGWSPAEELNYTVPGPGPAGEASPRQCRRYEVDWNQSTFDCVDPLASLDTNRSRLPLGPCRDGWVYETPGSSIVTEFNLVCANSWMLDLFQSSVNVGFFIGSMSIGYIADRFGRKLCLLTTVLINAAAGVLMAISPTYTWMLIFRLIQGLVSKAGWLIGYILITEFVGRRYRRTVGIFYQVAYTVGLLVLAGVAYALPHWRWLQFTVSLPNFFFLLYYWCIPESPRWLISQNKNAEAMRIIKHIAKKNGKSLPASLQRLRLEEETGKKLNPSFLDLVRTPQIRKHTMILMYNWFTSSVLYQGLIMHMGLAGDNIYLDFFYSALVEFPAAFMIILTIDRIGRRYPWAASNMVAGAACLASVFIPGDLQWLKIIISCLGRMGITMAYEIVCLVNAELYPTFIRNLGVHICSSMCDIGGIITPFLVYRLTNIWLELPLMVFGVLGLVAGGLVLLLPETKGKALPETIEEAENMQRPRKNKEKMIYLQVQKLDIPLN

A word on the Ki: it is the equilibrium dissociation constant of an inhibitor or competing ligand from its target. On to `Nc1ncnc2c1ncn2CCOCP(=O)(O)O` [Adefovir], for which the “Cell viability (MTT) relative to no exposure” value in the data set on ciPTEC-OAT1 is on record as “significantly affected”. For the same compound, the IC50 against OAT1 [1] is 23 ± 4 µM; on HeLa-OAT1 it was 8.1 µM; in the data set with hOAT1-CHO and HEK-OAT1 (setting [4]), 1.4 ± 0.7 µM; in the data set on hOAT1-CHO and HEK-OAT1 (setting [5]) it was 0.22 ± 0.08 µM. Also, the Ki on CHO-OAT1 (CHO-OAT1, substrate not given) is 23.8 µM.

For `Nc1ccn(C[C@@H](CO)OCP(=O)(O)O)c(=O)n1` [Cidofovir], the IC50 on OAT1 [1] is 71 ± 34 µM; in the data set on hOAT1-CHO and HEK-OAT1 (setting [4]), 3 ± 1 µM; in the data set with hOAT1-CHO and HEK-OAT1 (setting [5]), 0.5 ± 0.2 µM.

For `CN/C(=N/CCSCc1nc[nH]c1C)NC#N` [Cimetidine], the IC50 at OAT1 [1] is 654 ± 291 µM; at OAT3, 215 ± 162 µM; on Xenopus-OAT3 it was 53 µM; at CHO-OAT3, 79 µM. The “Inhibition of ASP+ uptake at OCT2” value at OCT2 is recorded as “significant inhibition”.

`C[C@H](Cn1cnc2c(N)ncnc21)OCP(=O)(O)O` [Tenofovir]: the “Cell viability (MTT) relative to no exposure” value is “significantly affected” in the data set with ciPTEC-OAT1 and “slightly decreased” in the data set with ciPTEC-OAT3 (ciPTEC-OAT3, 1 mM, 48 h). Further, the IC50 was 114 ± 25 µM in the data set with ciPTEC-OAT1 (ciPTEC-OAT1, 24 h exposure, read-out: Inhibitory potency on cell viability (MTT), 24 h); 223 ± 67 µM in the data set on ciPTEC-OAT1 (ciPTEC-OAT1, 72 h exposure, read-out: Inhibitory potency on cell viability (MTT), 72 h); 189 ± 48 µM in the data set with ciPTEC-OAT1 (read-out: Inhibitory potency on cell viability (MTT), 48 h, ciPTEC-OAT1, 48 h exposure); 42 ± 8 µM on OAT1 [1]; 29.3 µM at HeLa-OAT1; 21 ± 7 µM with hOAT1-CHO and HEK-OAT1 (setting [4]). The IC50 with hOAT1-CHO and HEK-OAT1 (setting [5]) was 10 ± 2 µM. Besides, on OAT1 [1], the “DDI index Cmax/IC50” value is 0.014 and 0.019. Further, the Ki at CHO-OAT1 (Ref. 35, substrate and cell line not given) is 33.8 µM.

Take `Cc1cn([C@H]2C[C@H](N=[N+]=[N-])[C@@H](CO)O2)c(=O)[nH]c1=O` [Zidovudine]: the “Cell viability with efflux inhibitors” value with ciPTEC-OAT1 (ciPTEC-OAT1, 10×Cmax (50 μM), with MK571 and KO143) is recorded as “did not affect cell viability”; in the data set with ciPTEC-OAT3 (ciPTEC-OAT3, 10×Cmax (50 μM), with MK571 and KO143), “did not affect cell viability”; with ciPTEC parent, “did not affect cell viability”. For the same compound, the “Cell viability as determined by the MTT assay” value with ciPTEC-OAT1 (ciPTEC-OAT1 and ciPTEC-OAT3, exposure for 24-72 h) is “did not affect cell viability”. Moreover, the “Fraction eliminated via the urine without metabolic alterations” value in data set [2] is 23%.

What is called Km is the substrate concentration at which the rate is half of its maximum. On to `O=C1OC2(c3ccc(O)cc3Oc3cc(O)ccc32)c2ccccc21` [fluorescein], for which the results for the Km at OAT1 [1] and at OAT3 were 0.8 ± 0.1 µM and 3.7 ± 0.5 µM, respectively.

On OAT3, `Nc1ccc(C(=O)NCC(=O)O)cc1` [para-aminohippuric acid] had an IC50 of 152 ± 3 µM.

As for “EGF: Epidermal growth factor (NSDSECPLSHDGYCLHDGVCMYIEALDKYACNCVVGYIGERCQYRDLKWWELR; Epidermal growth factor; UniProt P01133 971-1023, looked up)”, the OAT1 gene expression result with OAT1 [3] is “significantly increased”.

estrone sulfate: the IC50 against OAT3 was 2.1 ± 0.3 µM; on Xenopus-OAT3, 3 µM.
